These are literature values, as cited in US9161933B2, “Solid pharmaceutical composition comprising amlodipine and losartan and process for producing same” (HANMI SCIENCE CO., LTD, priority 2009, dated 2015).

Each structure is given as a SMILES string.

The conditions of the data set: after food absorption.

`CCCCc1nc(Cl)c(CO)n1Cc1ccc(-c2ccccc2-c2nn[nH]n2)cc1` [losartan, 2-butyl-4-chloro-1-[[2′-(1H-tetrazol-5-yl)[1,1′-biphenyl]-4-yl]methyl]-1H-imidazol-5-methanol]: the “reduction of Cmax of losartan” value is on record as “about 10%”.
